Read-outs that look alike come from different tables or passages of the source.
Tested on: iCell cardiomyocytes (human iPSC-derived cardiomyocytes)
Assay: Intracellular Ca2+ flux / beating parameters in iCell cardiomyocytes (FLIPR tetra), 90 min or 24 h
Format: cell-based
Details: Homo sapiens, Cardiomyocyte, 0.00 µM = 100.00; for activity at 0.1 µM: 0.10 µM
Protocol: Details on cardiomyocyte cell culture are described in detail elsewhere ([Grimm et al. 2015b]; [Sirenko et al. 2013a]). Briefly, tissue-culture treated 384 well plates were gelatinized with 25μL per well of 0.1% (w/v) gelatin in water for 2 h at 37°C and 5% CO2 . Individual vials of cells were thawed for 4 min in a water bath maintained at 37°C. Thawed cells were resuspended in 10ml plating medium containing 1:500 (vol/vol) penicillin/streptomycin solution at room temperature (RT). Live cell counts for each cell suspension were determined by trypan blue staining and cells were further diluted to provide final cell densities of 2×10^5 viable cells/ml. Thus, 5,000 cells suspended in 25μL media were transferred per well after the gelatin solution had been discarded. Cell culture plates were rested for 30 min at RT before they were incubated for 48 h at 37°C and 5% CO2 . Then, a media exchange with 30μL of fresh maintenance medium containing 1:500 (vol/vol) penicillin/streptomycin solution was performed, and cell media were subsequently changed every 48 h for 12 d. On the experiment day, the medium was completely exchanged with either 25μL (for Ca^2+ flux assay) or 40μL (for imaging) of fresh medium.
Responses of iCell®-cardiomyocytes to drugs and chemicals were evaluated using intracellular Ca^2+ flux measurements ([Grimm et al. 2015b]; [Sirenko et al. 2013b]). For experiments, 20 mM stock solutions of PCBs and PCB metabolites were prepared in DMSO ( 200× ). Chemical working solutions ( 5× ) were prepared using cardiomyocyte maintenance medium and contained 2.5% (vol/vol) DMSO. These chemical master plates were prepared to include all chemicals in concentration–response (0.05, 0.5, 5, 50, and 500μM ). Negative controls included media-only and vehicle control (i.e., 0.5% vol/vol DMSO in cell culture media) wells. Positive assay controls were consistent with previously published reports ([Grimm et al. 2018]) and included TAB ( 50μM ) as a cytotoxic control, and isoproterenol ( 0.1–10μM ), propranolol ( 0.1–5 μM ), cisapride ( 0.01–1μM ), and doxorubicin ( 0.1–5μM ) as chemicals associated with specific effects on beating and ion flux. Each test chemical was screened in triplicate for each concentration.
Experiments started with the addition of 25μL of prewarmed 2× concentrated calcium dye reagent to sample wells containing 25μL maintenance media. Microplates were then acclimated for 2 h at 37°C. Following equilibration, cardiomyocyte sample wells were treated simultaneously by the addition of 12.5μL of prewarmed 5× chemical solution to iCell®-cardiomyocytes using the automated liquid handler in the FLIPR tetra (Molecular Devices). Treated cell cultures were incubated for either 90 min or 24 h. After the conclusion of the treatment period, the Ca^2+ flux was measured for 100 s at a frequency of 8 Hz using the integrated fluorescence plate reader in the FLIPR tetra (Molecular Devices) using an emission wavelength range of λemission=515–575 nm ( λexcitation=470–495 nm ). Additional instrument settings included exposure time per read of 0.05s, a gain of 2000, an excitation intensity of 30%, and an internal temperature of 37°C.
Ca^2+ flux data were processed in R studio (version 1.0.136, with R version 3.3.2; R Development Core Team) as described elsewhere ([Blanchette et al. 2019]; [Burnett et al. 2019]). Calculated quantitative metrics included the means and coefficients of variation (CV) of the peak height, which can be indicative of cytotoxicity, inhibition, or stimulation of beating. Means of peak frequency, an indicator of positive or negative […], and CV of peak spacing, an indicator of irregular beating, were also derived from Ca^2+ flux traces. Finally, the mean ratio of the decay over rise time was calculated. Increases in the decay/rise time ratio are reflective of delayed repolarization and are a measure for QT prolongation. […]

[1] = 1.5 h, 90min, read-out: cm.amp.avg.90min
[2] = 1.5 h, 90min, read-out: cm.amp.cv.90min
[3] = 1.5 h, 90min, read-out: cm.bpm.90min
[4] = 1.5 h, 90min, read-out: cm.decay.rise.90min
[5] = 1.5 h, 90min, read-out: cm.spacing.cv.90min
[6] = 24 h, 24hrs, read-out: cm.amp.avg.24hrs
[7] = 24 h, 24hrs, read-out: cm.amp.cv.24hrs
[8] = 24 h, 24hrs, read-out: cm.bpm.24hrs
[9] = 24 h, 24hrs, read-out: cm.decay.rise.24hrs
[10] = 24 h, 24hrs, read-out: cm.spacing.cv.24hrs

With `Clc1ccc(Cl)c(-c2c(Cl)ccc(Cl)c2Cl)c1` [PCB95] the activity at 0.01 µM [1] was 91.5%, the activity at 0.01 µM [2] was 105% and the activity at 0.01 µM [3] was 99.1%. The activity at 0.01 µM [4] was 101%, the activity at 0.01 µM [5] was 118% and the activity at 0.1 µM [1] was 99.9%. The activity at 0.1 µM [2] was 86.3%, the activity at 0.1 µM [3] was 96.5% and the activity at 0.1 µM [4] was 103%. For the same compound, the activity at 0.1 µM [5] was 104%, the activity at 1 µM [1] was 84.6% and the activity at 1 µM [2] was 116%. The activity at 1 µM [3] was 85.3%, the activity at 1 µM [4] was 109% and the activity at 1 µM [5] was 92%. It also gave an activity at 10 µM [1] of 101%, an activity at 10 µM [2] of 120% and an activity at 10 µM [3] of 86.5%. The activity at 10 µM [4] was 120%, the activity at 10 µM [5] was 120% and the activity at 100 µM [1] was 9.49%. It also gave an activity at 100 µM [2] of 441%, an activity at 100 µM [3] of 0% and an activity at 100 µM [4] of 36.2%. The activity at 100 µM [5] was 78.1%, the activity at 0.01 µM [6] was 115% and the activity at 0.01 µM [7] was 139%. It also gave an activity at 0.01 µM [8] of 110%, an activity at 0.01 µM [9] of 92.5% and an activity at 0.01 µM [10] of 142%. It also gave an activity at 0.1 µM [6] of 181%, an activity at 0.1 µM [7] of 73.7% and an activity at 0.1 µM [8] of 113%. It also gave an activity at 0.1 µM [9] of 99.1%, an activity at 0.1 µM [10] of 137% and an activity at 1 µM [6] of 76.5%. For the same compound, the activity at 1 µM [7] was 36.8%, the activity at 1 µM [8] was 43.9% and the activity at 1 µM [9] was 54.1%. It also gave an activity at 1 µM [10] of 61.3%, an activity at 10 µM [6] of 144% and an activity at 10 µM [7] of 77.4%. The activity at 10 µM [8] was 79.2%, the activity at 10 µM [9] was 109% and the activity at 10 µM [10] was 127%. For the same compound, the activity at 100 µM [6] was 0%, the activity at 100 µM [7] was 0% and the activity at 100 µM [8] was 0%. It also gave an activity at 100 µM [9] of 0% and an activity at 100 µM [10] of 0%.

— article PMC7377239, “Cardiovascular Effects of Polychlorinated Biphenyls and Their Major Metabolites” (Environmental Health Perspectives, 2020)
